US7074789B2, “Kinase inhibitors” (Amgen Inc., priority 1999, dated 2006)
Where “and” joins values, the source holds several entries; their conditions need not be identical. Equal entries are not always repeated.

Key:
Assay type in all cases: biochemical
c-Met = target: T1, c-Met (Homo sapiens, UniProt P08581); experiment: Kinase inhibition assay (33P transfer), c-Met; settings: Table 2, kinase inhibition class; read-out: Met-1
T1 construct: Kinases are expressed as either kinase domains or full length constructs; made in house
Summary of the method: (§1)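 Recombinant kinase domains or full-length GST- or His-tagged constructs, from E. coli or baculovirus/High Five cells, sometimes with regulatory polypeptides. Transfer of 33P from ATP to plate-bound poly(Glu,Tyr) 4:1 or poly(Arg,Ser) 3:1 counted by liquid scintillation after phosphoric acid wash; IC50 is the concentration halving incorporation.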

Kdr = target: T2, Kdr (Homo sapiens, UniProt P35968); experiment: Kinase inhibition assay (33P transfer), Kdr; settings: Table 3; read-out: KDR-1
T2 construct: Kinases are expressed as either kinase domains or full length constructs; made in house
Summary of the method: (§2)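 GST/His-tagged kinase (domain or full length; E. coli or baculovirus) + [33P]ATP on plates coated with poly(Glu,Tyr) 4:1 or poly(Arg,Ser) 3:1; incubate, wash 0.5% H3PO4, add scintillant, count.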

EGFR = target: T3, EGFR (Homo sapiens, UniProt P00533); experiment: Kinase inhibition assay (33P transfer), EGFR; settings: Table 2, kinase inhibition class; read-out: EGFR-1
T3 construct: Kinases are expressed as either kinase domains or full length constructs; made in house
Summary of the method: as §1

Itk = target: T4, Itk (Homo sapiens, UniProt Q08881); experiment: Kinase inhibition assay (33P transfer), Itk; settings: Table 3; read-out: Itk-1
T4 construct: Kinases are expressed as either kinase domains or full length constructs; made in house
T4 sequence (Q08881 1-620): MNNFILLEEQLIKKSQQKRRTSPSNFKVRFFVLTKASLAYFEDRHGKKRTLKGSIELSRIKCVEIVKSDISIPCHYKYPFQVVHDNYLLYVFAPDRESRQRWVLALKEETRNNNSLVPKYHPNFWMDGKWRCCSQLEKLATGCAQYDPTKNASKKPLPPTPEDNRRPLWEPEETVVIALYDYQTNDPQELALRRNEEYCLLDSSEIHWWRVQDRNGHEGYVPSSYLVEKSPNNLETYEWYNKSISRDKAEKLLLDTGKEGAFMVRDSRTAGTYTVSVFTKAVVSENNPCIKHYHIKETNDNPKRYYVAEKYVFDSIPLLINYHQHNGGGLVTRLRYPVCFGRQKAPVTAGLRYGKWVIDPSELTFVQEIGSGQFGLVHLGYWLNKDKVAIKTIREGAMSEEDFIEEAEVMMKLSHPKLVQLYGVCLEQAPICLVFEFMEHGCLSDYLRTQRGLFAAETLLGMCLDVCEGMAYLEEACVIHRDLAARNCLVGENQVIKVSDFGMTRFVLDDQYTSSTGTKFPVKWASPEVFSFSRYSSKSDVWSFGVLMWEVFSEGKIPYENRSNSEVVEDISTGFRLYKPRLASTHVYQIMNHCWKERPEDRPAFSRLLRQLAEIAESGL
Summary of the method: as §1

Tek = target: T5, Tek (Homo sapiens, UniProt Q02763); experiment: Kinase inhibition assay (33P transfer), Tek; settings: read-out: Tek-1
T5 construct: Kinases are expressed as either kinase domains or full length constructs; made in house
Summary of the method: as §1

AKT = target: T6, AKT (Homo sapiens, UniProt Q9Y243); experiment: Kinase inhibition assay (33P transfer), AKT; settings: Table 2, kinase inhibition class; read-out: AKT3-1
T6 construct: Kinases are expressed as either kinase domains or full length constructs; made in house
Summary of the method: as §2

IGFR-1 = target: T7, IGFR-1 (Homo sapiens, UniProt P08069); experiment: Kinase inhibition assay (33P transfer), IGFR-1; settings: Table 2, kinase inhibition class
T7 construct: Kinases are expressed as either kinase domains or full length constructs; made in house

Zap-70 = target: T8, Zap-70 (Homo sapiens, UniProt P43403); experiment: Kinase inhibition assay (33P transfer), Zap-70; settings: Table 3; read-out: Zap-1
T8 construct: Kinases are expressed as either kinase domains or full length constructs; made in house
T8 sequence (P43403 1-619): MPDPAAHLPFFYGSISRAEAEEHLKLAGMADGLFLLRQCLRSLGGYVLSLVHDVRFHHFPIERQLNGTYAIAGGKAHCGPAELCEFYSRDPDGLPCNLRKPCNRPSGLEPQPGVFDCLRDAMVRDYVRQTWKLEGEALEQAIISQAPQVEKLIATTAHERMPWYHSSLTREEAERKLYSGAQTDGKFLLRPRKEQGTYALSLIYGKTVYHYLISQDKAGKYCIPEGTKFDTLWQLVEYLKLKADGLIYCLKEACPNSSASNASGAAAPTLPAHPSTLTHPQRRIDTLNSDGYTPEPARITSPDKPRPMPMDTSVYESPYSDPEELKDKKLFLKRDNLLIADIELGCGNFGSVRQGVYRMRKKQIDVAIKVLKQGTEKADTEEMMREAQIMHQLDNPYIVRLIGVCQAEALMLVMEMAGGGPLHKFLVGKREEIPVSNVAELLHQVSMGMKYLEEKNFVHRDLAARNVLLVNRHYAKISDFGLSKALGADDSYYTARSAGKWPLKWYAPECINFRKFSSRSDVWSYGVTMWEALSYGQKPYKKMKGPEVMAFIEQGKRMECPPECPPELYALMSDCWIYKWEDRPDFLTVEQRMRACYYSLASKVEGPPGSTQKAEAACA
Summary of the method: as §2

Lck = target: T9, Lck (Homo sapiens, UniProt P06239); experiment: Kinase inhibition assay (33P transfer), Lck; settings: Table 3; read-out: Lck-1
T9 construct: Kinases are expressed as either kinase domains or full length constructs; made in house
Summary of the method: as §2

T7 sequence (P08069 31-1367): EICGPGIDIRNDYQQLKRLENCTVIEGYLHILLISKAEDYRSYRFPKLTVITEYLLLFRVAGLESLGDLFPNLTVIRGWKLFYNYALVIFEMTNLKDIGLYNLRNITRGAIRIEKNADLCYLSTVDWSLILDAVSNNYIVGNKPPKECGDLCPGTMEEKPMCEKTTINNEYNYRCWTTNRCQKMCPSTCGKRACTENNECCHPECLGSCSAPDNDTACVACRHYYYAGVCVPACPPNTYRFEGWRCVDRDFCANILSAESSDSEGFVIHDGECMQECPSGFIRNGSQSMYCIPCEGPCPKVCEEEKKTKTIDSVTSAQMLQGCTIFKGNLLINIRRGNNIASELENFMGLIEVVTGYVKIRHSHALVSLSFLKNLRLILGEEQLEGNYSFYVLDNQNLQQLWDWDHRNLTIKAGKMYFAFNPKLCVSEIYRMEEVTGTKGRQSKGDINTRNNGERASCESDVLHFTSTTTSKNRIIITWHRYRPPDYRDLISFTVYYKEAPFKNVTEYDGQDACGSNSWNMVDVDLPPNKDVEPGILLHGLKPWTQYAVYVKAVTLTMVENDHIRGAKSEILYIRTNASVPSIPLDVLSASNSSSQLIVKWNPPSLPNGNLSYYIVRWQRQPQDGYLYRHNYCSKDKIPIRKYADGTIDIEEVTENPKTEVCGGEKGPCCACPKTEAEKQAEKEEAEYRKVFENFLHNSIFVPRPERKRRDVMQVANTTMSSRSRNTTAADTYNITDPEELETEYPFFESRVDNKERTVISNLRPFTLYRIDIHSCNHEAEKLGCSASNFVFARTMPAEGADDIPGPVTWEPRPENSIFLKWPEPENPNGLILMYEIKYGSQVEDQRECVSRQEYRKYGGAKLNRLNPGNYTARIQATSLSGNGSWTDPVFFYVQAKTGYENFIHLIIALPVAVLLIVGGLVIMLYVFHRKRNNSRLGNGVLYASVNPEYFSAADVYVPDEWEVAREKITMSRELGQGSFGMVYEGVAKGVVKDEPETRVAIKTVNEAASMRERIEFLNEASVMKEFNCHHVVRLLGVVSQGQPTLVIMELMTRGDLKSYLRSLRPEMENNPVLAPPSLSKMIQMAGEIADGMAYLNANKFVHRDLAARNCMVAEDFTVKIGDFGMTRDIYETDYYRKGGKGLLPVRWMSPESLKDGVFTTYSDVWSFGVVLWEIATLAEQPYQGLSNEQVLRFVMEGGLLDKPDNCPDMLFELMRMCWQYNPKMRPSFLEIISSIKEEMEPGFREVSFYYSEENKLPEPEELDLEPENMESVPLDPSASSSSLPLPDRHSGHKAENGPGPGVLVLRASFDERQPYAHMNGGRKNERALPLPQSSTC
T6 sequence (Q9Y243 whole entry, the tested form may be a part): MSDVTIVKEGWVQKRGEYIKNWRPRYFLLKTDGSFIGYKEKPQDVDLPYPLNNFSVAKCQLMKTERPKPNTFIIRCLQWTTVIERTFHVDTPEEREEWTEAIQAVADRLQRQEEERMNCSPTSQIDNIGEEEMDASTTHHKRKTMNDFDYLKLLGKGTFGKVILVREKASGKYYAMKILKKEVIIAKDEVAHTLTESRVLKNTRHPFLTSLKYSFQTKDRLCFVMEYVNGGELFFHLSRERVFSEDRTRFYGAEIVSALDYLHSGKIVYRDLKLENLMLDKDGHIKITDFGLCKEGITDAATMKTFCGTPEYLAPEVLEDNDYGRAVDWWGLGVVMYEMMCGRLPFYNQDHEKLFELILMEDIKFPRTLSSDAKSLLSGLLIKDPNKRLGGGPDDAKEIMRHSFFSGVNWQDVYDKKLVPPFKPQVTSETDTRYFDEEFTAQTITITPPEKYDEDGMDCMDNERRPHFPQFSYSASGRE
T5 sequence (Q02763 23-1124, species assumed): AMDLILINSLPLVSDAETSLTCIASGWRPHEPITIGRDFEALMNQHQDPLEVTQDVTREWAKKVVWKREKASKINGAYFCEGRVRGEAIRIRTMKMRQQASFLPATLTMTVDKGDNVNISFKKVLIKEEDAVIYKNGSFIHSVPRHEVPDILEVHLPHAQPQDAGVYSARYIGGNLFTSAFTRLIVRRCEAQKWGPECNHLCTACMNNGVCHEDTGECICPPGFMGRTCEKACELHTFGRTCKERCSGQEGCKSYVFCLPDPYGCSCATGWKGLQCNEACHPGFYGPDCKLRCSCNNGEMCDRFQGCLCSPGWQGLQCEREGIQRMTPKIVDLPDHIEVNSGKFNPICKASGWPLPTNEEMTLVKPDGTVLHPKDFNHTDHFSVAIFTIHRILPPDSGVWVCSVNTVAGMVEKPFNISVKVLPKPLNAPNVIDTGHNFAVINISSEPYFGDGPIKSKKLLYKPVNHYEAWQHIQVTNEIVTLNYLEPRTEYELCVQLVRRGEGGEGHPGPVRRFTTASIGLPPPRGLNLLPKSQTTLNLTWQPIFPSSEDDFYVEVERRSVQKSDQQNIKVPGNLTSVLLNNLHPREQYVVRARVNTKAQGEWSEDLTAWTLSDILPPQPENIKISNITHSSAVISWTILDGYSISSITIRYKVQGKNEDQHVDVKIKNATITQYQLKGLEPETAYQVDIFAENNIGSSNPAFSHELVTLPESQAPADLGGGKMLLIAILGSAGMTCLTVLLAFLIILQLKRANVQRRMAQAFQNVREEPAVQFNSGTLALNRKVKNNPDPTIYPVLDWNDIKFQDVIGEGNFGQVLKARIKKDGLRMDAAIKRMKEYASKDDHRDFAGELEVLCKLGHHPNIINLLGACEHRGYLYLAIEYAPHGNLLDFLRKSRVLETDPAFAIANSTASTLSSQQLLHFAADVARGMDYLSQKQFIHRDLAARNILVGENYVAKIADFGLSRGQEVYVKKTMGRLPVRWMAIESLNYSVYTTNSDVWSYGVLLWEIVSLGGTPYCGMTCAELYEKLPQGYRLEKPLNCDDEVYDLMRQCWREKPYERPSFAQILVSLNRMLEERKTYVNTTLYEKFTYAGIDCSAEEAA
T1 sequence (P08581 25-1390): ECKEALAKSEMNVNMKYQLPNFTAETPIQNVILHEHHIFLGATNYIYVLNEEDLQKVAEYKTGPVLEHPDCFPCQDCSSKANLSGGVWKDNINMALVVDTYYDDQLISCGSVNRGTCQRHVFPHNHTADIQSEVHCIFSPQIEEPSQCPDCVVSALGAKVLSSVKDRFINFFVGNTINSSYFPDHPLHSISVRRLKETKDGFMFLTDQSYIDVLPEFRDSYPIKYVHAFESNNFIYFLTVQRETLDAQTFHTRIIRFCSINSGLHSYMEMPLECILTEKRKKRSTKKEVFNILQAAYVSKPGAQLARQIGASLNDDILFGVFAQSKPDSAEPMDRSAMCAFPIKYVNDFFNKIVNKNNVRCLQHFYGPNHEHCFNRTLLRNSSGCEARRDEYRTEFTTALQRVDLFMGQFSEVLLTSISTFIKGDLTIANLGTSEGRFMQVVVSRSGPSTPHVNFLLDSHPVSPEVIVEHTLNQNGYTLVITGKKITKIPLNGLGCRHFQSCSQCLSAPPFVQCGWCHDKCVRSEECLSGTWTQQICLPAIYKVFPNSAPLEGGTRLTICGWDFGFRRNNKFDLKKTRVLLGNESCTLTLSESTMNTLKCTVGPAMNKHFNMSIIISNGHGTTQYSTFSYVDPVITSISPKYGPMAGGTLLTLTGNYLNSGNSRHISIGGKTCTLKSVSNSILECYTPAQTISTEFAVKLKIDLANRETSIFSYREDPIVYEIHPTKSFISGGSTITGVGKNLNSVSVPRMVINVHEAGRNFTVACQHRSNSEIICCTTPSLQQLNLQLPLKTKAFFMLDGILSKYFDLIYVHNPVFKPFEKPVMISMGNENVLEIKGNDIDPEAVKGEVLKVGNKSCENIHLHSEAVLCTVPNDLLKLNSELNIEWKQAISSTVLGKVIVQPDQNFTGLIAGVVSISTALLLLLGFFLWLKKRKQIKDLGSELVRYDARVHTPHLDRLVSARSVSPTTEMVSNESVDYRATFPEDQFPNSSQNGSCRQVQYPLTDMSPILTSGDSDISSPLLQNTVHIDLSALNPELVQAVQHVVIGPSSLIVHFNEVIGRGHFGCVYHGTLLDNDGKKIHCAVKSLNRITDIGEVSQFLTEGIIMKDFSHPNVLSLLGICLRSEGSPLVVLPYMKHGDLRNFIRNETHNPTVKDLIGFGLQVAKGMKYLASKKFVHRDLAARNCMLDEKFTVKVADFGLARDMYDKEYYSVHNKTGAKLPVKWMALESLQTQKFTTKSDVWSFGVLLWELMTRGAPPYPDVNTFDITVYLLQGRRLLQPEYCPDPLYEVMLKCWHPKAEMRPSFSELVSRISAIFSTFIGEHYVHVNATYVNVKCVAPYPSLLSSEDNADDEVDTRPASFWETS
T9 sequence (P06239 whole entry, species assumed, the tested form may be a part): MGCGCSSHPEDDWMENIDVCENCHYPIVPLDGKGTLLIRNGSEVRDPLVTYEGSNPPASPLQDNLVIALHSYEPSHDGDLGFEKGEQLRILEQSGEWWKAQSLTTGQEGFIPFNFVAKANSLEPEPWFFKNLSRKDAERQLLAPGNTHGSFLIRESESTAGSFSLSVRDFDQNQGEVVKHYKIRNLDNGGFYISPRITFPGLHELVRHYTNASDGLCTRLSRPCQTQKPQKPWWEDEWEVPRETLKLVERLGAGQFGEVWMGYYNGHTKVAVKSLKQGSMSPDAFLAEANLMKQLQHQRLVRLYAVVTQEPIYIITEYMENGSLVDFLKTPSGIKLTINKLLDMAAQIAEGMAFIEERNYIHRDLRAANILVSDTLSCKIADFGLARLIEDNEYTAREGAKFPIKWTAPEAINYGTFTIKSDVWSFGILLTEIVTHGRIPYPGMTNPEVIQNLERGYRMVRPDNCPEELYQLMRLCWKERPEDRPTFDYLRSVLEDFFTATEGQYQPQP

SMILES	IC50 (c-Met)	IC50 (Kdr)	IC50 (EGFR)	IC50 (Itk)	IC50 (Tek)	IC50 (AKT)	IC50 (IGFR-1)	IC50 (Zap-70)	IC50 (Lck)
COc1cccc(Nc2ncnc(-c3ccccc3)n2)c1 [Compound 13]	> 16.2 µM	> 16.2 µM	> 16.2 µM	> 16.2 µM	> 16.2 µM	> 16.2 µM	> 16.2 µM	> 16.2 µM	> 16.2 µM
Oc1ccc(Nc2ncnc(-c3ccccc3)n2)cc1 [Compound 11]	> 17 µM	1.51 to 9.08 µM	> 17 µM	> 17 µM	> 17 µM	> 17 µM	> 17 µM	> 17 µM	9.08 to 13.2 µM
COc1ccc(Nc2ncnc(Nc3ccc(OCc4ccccc4)cc3)n2)cc1 [Compound 161]	> 11.3 µM	1 to 6.01 µM	> 11.3 µM	> 11.3 µM	6.01 to 8.76 µM	6.01 to 8.76 µM	> 11.3 µM	> 11.3 µM	> 11.3 µM
Oc1cccc(Nc2ncnc(-c3ccccc3)n2)c1 [Compound 18]	> 17 µM	9.08 to 13.2 µM	> 17 µM	> 17 µM	> 17 µM	> 17 µM	> 17 µM	> 17 µM	9.08 to 13.2 µM
COc1cc(Nc2ncnc(-c3ccccc3)n2)cc(OC)c1 [Compound 15]	> 14.6 µM	> 14.6 µM	> 14.6 µM	> 14.6 µM	> 14.6 µM	> 14.6 µM	> 14.6 µM	11.4 to 14.6 µM	> 14.6 µM
COc1ccc(Nc2ncnc(-c3ccccc3)n2)cc1 [Compound 14]	> 16.2 µM	> 16.2 µM	> 16.2 µM	> 16.2 µM	> 16.2 µM	> 16.2 µM	> 16.2 µM	12.6 to 16.2 µM	> 16.2 µM
COc1cc(Nc2ncnc(-n3c(NCC(N)=O)nc4ccccc43)n2)cc(OC)c1OC [Compound 389]	> 9.99 µM	> 9.99 µM	> 9.99 µM	> 9.99 µM	> 9.99 µM	> 9.99 µM	< 0.888 µM	> 9.99 µM	> 9.99 µM
COc1cccc(Nc2ncnc(Nc3ccc(OCc4ccccc4)cc3)n2)c1 [Compound 160]	8.76 to 11.3 µM	> 11.3 µM	1 to 6.01 µM	> 11.3 µM	> 11.3 µM	8.76 to 11.3 µM	> 11.3 µM	> 11.3 µM	> 11.3 µM
COc1cc(Nc2ncnc(-c3ccncc3)n2)cc(OC)c1OC [Compound 42]	> 13.3 µM	1.18 to 7.07 µM	> 13.3 µM	> 13.3 µM	–	> 13.3 µM	> 13.3 µM	> 13.3 µM	1.18 to 7.07 µM
COc1cc(Nc2ncnc(N3CCc4ccc([N+](=O)[O-])cc43)n2)cc(OC)c1OC [Compound 191]	> 10.6 µM	5.65 to 8.25 µM	> 10.6 µM	> 10.6 µM	–	> 10.6 µM	> 10.6 µM	> 10.6 µM	> 10.6 µM
COc1cc(Nc2ncnc(Nc3cc(C)nn3C)n2)cc(OC)c1OC [Compound 393]	> 12.1 µM	> 12.1 µM and 6.46 to 9.42 µM	9.42 to 12.1 µM and > 12.1 µM	> 12.1 µM	–	> 12.1 µM	> 12.1 µM	> 12.1 µM	1.08 to 6.46 µM and > 12.1 µM
CC(C)(C)OC(=O)Nc1ccc(Nc2ncnc(Nc3ccc(OCc4ccccc4)cc3)n2)cc1 [Compound 162]	> 9.29 µM	4.95 to 7.22 µM	> 9.29 µM	> 9.29 µM	–	7.22 to 9.29 µM	> 9.29 µM	> 9.29 µM	> 9.29 µM
